Read-outs that look alike come from different tables or passages of the source.
Legend:
Plasma stability (Human) = assay type: in vitro ADME
Description: (§1) Plasma stability of disclosed compounds was investigated. The following table indicates the percent of compound remaining after 60 minutes.

IV pharmacokinetics = assay type: in vivo; design: C0: unit: ng/mL; settings: Sprague Dawley rats, 2 mg/kg, normal saline; for Vd: read-out: Vss
Description: Sprague Dawley rats were dosed intravenously using a normal saline formulation containing 2 mg/kg of the compounds identified in the below table. The table below summarizes the results of the IV pharmacokinetics.

Plasma stability (Rat) = assay type: in vitro ADME
Description: as §1

[1] = Microsomal stability (Rat); assay type: in vitro ADME; settings: rat microsomes
Description: (§2) Microsomal stability of disclosed compounds was investigated. The following table indicates the percent of compound remaining after 60 minutes.

[2] = Microsomal stability (Human); assay type: in vitro ADME; settings: human microsomes
Description: as §2

[3] = target: T1, NMDAR2A expressing HEK cell membranes (Homo sapiens, UniProt Q12879); experiment: NMDAR agonist assay, [3H]MK-801 binding, NMDAR2A; assay type: biochemical; settings: 50 μM glutamate
T1 construct: expressed in transfected cells; host or cells: HEK cells (membrane extract)
Description: (§3) (nonequilibrium conditions).
(§4) The baseline value was determined from the best fit curve of the DPM values modeled using the GraphPad program and the log(agonist) vs. response(three parameters) algorithm was then subtracted from all points in the dataset.

[4] = target: T2, NMDAR2B expressing HEK cell membranes (Homo sapiens, UniProt Q13224); experiment: NMDAR agonist assay, [3H]MK-801 binding, NMDAR2B; assay type: biochemical; settings: 50 μM glutamate
T2 construct: expressed in transfected cells; host or cells: HEK cells (membrane extract)
Description: as §3, §4

[5] = system: positive (hedonic) 50-kHz ultrasonic vocalizations (USVs); experiment: Positive Emotional Learning (PEL) test; assay type: in vivo; settings: rat, PO, dose 0.1 mg/kg, one hour after administration
Description: Experiments were conducted as described in Burgdorf et al., “The effect of selective breeding for differential rates of 50-kHz ultrasonic vocalizations on emotional behavior in rats,” Devel. […] Rat 50-kHz ultrasonic vocalization (hedonic USVs) is a validated model for the study of positive affective state and is best elicited by rough-and-tumble play.
The PEL assay measures the acquisition of positive (hedonic) 50-kHz ultrasonic vocalizations (USVs) to a social stimulus, heterospecific rough and tumble play stimulation. Heterospecific rough-and-tumble play stimulation was administered by the experimenter's right hand. One hour after administration of test compound or vehicle negative control (0.5% sodium carboxymethyl cellulose in 0.9% sterile saline vehicle), animals received 3 min of heterospecific rough-and-tumble play that consisted of alternating 15 sec blocks of heterospecific play and 15 sec of no-stimulation. […] Frequency modulated 50-kHz USVs that occurred during each of the no-stimulation periods were quantified to measure PEL. Animals were not habituated to play stimulation before testing. Positive emotional learning was measured during the conditioned stimulus (CS) trials preceding the tickle unconditioned stimulus (UCS) trials. Animals received 15 second trials consisting of 6 CS and 6 UCS trials each (3 min total).

[6] = Oral pharmacokinetics (plasma, brain, CSF); assay type: in vivo; design: Cmax: unit: ng/mL; settings: Sprague Dawley rats, per os, 10 mg/kg; for Tmax: normal saline
Description: In another experiment, Sprague Dawley rats were dosed per os using a normal saline formulation containing 10 mg/kg of the compounds identified in the table below. Plasma, brain, and CSF samples were analyzed at various time points over a 24 hour period. The table below summarizes the results of the oral pharmacokinetics.

[7] = target: T3, NMDAR2A expressing HEK cell membranes (Homo sapiens, UniProt Q05586+Q12879); experiment: NMDAR agonist assay, [3H]MK-801 binding, NMDAR2A; assay type: biochemical; settings: 50 μM glutamate; for EC50: [3H]MK-801 binding, read-out: NMDAR2A: log EC50 (converted); for Emax: relative to 1 mM glycine, read-out: NMDAR2A: % maximal [3H]MK-801 binding relative to 1 mM glycine
T3 construct: expressed in transfected cells; host or cells: HEK cells (membrane extract)
Description: as §3, §4

[8] = target: T4, NMDAR2B expressing HEK cell membranes (Homo sapiens, UniProt Q05586+Q13224); experiment: NMDAR agonist assay, [3H]MK-801 binding, NMDAR2B; assay type: biochemical; settings: 50 μM glutamate; for EC50: [3H]MK-801 binding, read-out: NMDAR2B log EC50 (converted); for Emax: relative to 1 mM glycine, read-out: NMDAR2B: % maximal [3H]MK-801 binding relative to 1 mM glycine
T4 construct: expressed in transfected cells; host or cells: HEK cells (membrane extract)
Description: as §3, §4

[9] = target: T5, NMDAR2D expressing HEK cell membranes (Homo sapiens, UniProt O15399+Q05586); experiment: NMDAR agonist assay, [3H]MK-801 binding, NMDAR2D; assay type: biochemical; settings: 50 μM glutamate; for EC50: [3H]MK-801 binding, read-out: NMDAR2D: log EC50 (converted); for Emax: relative to 1 mM glycine, read-out: NMDAR2D: % maximal [3H]MK-801 binding relative to 1 mM glycine
T5 construct: expressed in transfected cells; host or cells: HEK cells (membrane extract)
Description: as §3, §4

[10] = Sprague Dawley, rat, in vivo, iv
[11] = Sprague Dawley, rat, in vivo, iv, read-out: C0
[12] = Sprague Dawley, rat, plasma, po
[13] = Sprague Dawley, rat, plasma, po, read-out: Tmax
[14] = Sprague Dawley, rat, plasma, po, plasma, read-out: Cmax

T1 sequence (Q12879 23-1464, other chains not shown): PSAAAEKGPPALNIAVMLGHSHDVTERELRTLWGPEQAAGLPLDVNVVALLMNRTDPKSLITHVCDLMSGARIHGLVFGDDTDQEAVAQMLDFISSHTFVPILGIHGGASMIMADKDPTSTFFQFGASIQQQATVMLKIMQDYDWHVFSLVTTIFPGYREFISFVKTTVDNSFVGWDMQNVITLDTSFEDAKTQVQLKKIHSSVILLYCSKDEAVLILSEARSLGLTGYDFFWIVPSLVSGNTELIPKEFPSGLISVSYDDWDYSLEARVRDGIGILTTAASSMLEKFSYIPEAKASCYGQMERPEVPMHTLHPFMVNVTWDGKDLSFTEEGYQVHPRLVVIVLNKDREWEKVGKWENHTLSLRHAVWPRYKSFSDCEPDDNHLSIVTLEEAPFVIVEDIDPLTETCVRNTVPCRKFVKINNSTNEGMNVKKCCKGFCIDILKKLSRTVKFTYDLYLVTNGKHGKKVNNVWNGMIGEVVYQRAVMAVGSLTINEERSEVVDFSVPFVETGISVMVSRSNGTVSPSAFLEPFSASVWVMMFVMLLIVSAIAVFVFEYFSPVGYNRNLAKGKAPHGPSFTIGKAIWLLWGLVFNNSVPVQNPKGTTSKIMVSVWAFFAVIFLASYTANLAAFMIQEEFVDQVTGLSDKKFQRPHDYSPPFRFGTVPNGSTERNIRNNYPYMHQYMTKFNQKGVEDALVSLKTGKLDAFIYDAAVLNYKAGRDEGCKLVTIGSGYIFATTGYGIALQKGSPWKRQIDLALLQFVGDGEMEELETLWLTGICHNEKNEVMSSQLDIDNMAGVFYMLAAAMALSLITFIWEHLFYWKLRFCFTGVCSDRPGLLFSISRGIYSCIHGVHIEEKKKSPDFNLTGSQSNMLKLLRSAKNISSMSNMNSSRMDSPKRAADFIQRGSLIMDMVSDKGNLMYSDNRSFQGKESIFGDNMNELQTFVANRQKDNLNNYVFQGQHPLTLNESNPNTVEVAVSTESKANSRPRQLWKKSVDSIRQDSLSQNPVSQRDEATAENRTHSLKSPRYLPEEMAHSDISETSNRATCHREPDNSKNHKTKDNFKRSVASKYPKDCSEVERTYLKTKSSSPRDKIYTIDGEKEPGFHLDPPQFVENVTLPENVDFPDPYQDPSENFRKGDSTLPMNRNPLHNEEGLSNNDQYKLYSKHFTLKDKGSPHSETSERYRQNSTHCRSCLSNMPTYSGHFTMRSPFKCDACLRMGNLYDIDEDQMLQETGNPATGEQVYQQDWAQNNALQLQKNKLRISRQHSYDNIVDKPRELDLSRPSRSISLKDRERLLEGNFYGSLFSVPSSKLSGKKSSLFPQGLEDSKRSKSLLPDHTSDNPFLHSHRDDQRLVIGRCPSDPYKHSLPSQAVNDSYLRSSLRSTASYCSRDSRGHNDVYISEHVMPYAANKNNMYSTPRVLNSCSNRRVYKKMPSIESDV
T3 sequence (Q12879 23-1464, other chains not shown): as above
T2 sequence (Q13224 27-1484, other chains not shown): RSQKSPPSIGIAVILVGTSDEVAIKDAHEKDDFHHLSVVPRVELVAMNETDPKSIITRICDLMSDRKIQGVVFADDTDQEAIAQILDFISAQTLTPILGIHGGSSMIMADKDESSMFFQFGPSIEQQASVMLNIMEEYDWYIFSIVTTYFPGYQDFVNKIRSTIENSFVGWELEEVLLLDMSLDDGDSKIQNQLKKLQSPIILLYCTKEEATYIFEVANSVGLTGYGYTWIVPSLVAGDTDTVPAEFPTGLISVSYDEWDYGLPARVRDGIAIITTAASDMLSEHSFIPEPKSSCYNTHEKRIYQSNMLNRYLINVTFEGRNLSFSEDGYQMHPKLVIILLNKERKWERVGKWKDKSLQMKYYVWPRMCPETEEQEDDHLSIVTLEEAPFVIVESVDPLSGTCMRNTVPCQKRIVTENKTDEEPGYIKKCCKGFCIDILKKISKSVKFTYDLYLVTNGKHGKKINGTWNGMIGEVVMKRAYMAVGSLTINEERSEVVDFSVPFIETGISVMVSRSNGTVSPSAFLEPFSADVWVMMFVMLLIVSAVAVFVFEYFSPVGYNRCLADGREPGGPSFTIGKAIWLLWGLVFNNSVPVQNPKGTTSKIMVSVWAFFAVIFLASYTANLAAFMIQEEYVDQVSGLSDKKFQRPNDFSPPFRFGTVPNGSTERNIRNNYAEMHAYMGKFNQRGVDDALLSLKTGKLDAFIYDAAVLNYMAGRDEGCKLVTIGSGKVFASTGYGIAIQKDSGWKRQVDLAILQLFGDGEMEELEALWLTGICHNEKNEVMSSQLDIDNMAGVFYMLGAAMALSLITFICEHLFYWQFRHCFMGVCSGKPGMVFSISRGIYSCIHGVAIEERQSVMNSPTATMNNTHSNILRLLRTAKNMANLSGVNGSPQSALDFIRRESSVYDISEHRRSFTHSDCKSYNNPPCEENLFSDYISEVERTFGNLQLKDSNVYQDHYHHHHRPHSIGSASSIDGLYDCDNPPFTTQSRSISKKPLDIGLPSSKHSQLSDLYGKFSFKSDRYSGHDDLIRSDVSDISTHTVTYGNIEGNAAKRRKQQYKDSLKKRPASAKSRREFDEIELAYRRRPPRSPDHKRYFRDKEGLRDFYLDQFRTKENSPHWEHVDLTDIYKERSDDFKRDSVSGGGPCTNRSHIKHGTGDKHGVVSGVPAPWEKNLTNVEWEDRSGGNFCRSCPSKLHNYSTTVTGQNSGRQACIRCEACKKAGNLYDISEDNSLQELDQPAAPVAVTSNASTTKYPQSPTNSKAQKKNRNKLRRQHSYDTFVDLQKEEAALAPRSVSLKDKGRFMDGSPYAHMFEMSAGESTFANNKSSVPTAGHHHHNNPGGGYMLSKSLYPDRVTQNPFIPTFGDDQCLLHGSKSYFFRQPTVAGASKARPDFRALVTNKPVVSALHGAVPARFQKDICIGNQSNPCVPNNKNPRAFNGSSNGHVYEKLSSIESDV

C[C@@H](O)[C@H](NC(=O)C1CCC2(CNC2=O)N1)C(N)=O (single isomer, unassigned) [AQ-2]
Plasma (Human): percent of compound remaining after 60 minutes (Plasma stability (Human)): 100% | AUClast (IV pharmacokinetics): 2601.7 ng·h/mL | C0 (IV pharmacokinetics): 5143.2 ng/mL | Cl (IV pharmacokinetics): 12.82 mL/min/kg | T1/2 (IV pharmacokinetics): 0.59 h | Vss (IV pharmacokinetics): 0.36 L/kg | Plasma (Rat): percent of compound remaining after 60 minutes (Plasma stability (Rat)): 95% | Microsomal (Rat): percent of compound remaining after 60 minutes [1]: 100% | Microsomal (Human): percent of compound remaining after 60 minutes [2]: 100% | EC50 ([3]; [3H]MK-801 binding, read-out: NMDAR2A: log EC50 (converted)): < 1 nM | NMDAR2A: % maximal [3H]MK-801 binding relative to 1 mM glycine [3]: + (<100%=+) | EC50 ([4]; [3H]MK-801 binding, read-out: NMDAR2B log EC50 (converted)): < 1 nM | NMDAR2B: % maximal [3H]MK-801 binding relative to 1 mM glycine [4]: + (<100%=+) | Max Effect (mean number of 50 kHz USVs per 15 seconds) ([5]; 0.1 mg/kg): * (*: 6-10.9) | % F [6]: 5% | AUClast [6]: 599.6 ng·h/mL | CSF Cmax [6]: 0 ng/mL | Brain Cmax [6]: 0 ng/mL | Tmax [6]: 1.08 h | Cmax ([6]; plasma): 144.2 ng/mL

CC(C)C(=O)N1C(C(=O)N[C@H](C(N)=O)[C@@H](C)O)CCC12CNC2=O (single isomer, unassigned) [AS]
Plasma (Human): percent of compound remaining after 60 minutes (Plasma stability (Human)): 100% | AUC(0-t) (IV pharmacokinetics; [10]): 2800 ng·h/mL | clearance (IV pharmacokinetics; [10]): 11.8 mL/min/kg | half-life (IV pharmacokinetics; [10]): 3.17 h | C0 (IV pharmacokinetics; [11]): 2230 ng/mL | Vd (IV pharmacokinetics; [10]): 0.61 L/kg | Plasma (Rat): percent of compound remaining after 60 minutes (Plasma stability (Rat)): 100% | Microsomal (Rat): percent of compound remaining after 60 minutes [1]: 100% | Microsomal (Human): percent of compound remaining after 60 minutes [2]: 84% | NMDAR2A: % maximal [3H]MK-801 binding relative to 1 mM glycine [3]: + (<100%=+) | EC50 [7]: < 1 nM | EC50 [8]: < 1 nM | NMDAR2B: % maximal [3H]MK-801 binding relative to 1 mM glycine [4]: + (<100%=+) | Max Effect (mean number of 50 kHz USVs per 15 seconds) [5]: ** (**: 11-16.9) | CSF Cmax [6]: 0 ng/mL | Brain Cmax [6]: 0 ng/mL | AUC(0-t) [6, 12]: 367 ng·h/mL | bioavailability [6, 12]: 3% | Tmax [6, 13]: 0.83 h | Cmax [6, 14]: 75.4 ng/mL

CC(C)CN1C(C(=O)N[C@H](C(N)=O)[C@@H](C)O)CCC12CNC2=O (single isomer, unassigned) [BA]
EC50 [9]: < 1 nM | Emax [9]: < 100% | EC50 [7]: < 1 nM | Emax [7]: < 100% | EC50 [8]: > 100 nM | NMDAR2B: % maximal [3H]MK-801 binding relative to 1 mM glycine [4]: − (−=0)

CC(C)(C)OC(=O)N1C(C(N)=O)CCC12CNC2=O (single isomer, unassigned) [BE]
EC50 [9]: < 1 nM | Emax [9]: < 100% | Emax [7]: < 100% | EC50 [8]: > 100 nM | NMDAR2B: % maximal [3H]MK-801 binding relative to 1 mM glycine [4]: − (−=0)

C[C@@H](O)[C@H](NCC1CCC2(CNC2=O)N1C(=O)OC(C)(C)C)C(=O)N(C)C (single isomer, unassigned) [BT]
NMDAR2A: % maximal [3H]MK-801 binding relative to 1 mM glycine [3]: + (<100%=+) | EC50 [7]: < 1 nM | EC50 [8]: > 100 nM | NMDAR2B: % maximal [3H]MK-801 binding relative to 1 mM glycine [4]: − (−=0)

C[C@@H](O)[C@H](NC1CN(C(=O)OC(C)(C)C)C2(CNC2=O)C1)C(N)=O (single isomer, unassigned) [CG]
NMDAR2A: % maximal [3H]MK-801 binding relative to 1 mM glycine [3]: + (<100%=+) | EC50 [7]: < 1 nM | EC50 [8]: > 100 nM | Emax [8]: 0% | NMDAR2B: % maximal [3H]MK-801 binding relative to 1 mM glycine [4]: − (−=0)

CC(O)C(C(N)=O)N(C)CC1CCC2(CNC2=O)N1 (single isomer, unassigned) [CV]
NMDAR2A: % maximal [3H]MK-801 binding relative to 1 mM glycine [3]: + (<100%=+) | EC50 [7]: < 1 nM | EC50 [8]: < 1 nM | NMDAR2B: % maximal [3H]MK-801 binding relative to 1 mM glycine [4]: ++ (>100%=++)

O=C1NCC12CN(Cc1ccccc1)C1(CNC1=O)C2 (single isomer, unassigned) [DO, 10-benzyl-2,8,10-triazadispiro[3.1.3^6.2^4]undecane-1,7-dione]
NMDAR2A: % maximal [3H]MK-801 binding relative to 1 mM glycine [3]: + (<100%=+) | EC50 [7]: < 1 nM | EC50 [8]: > 100 nM | NMDAR2B: % maximal [3H]MK-801 binding relative to 1 mM glycine [4]: − (−=0)

O=C1NCC12CN(Cc1ccccc1)C1(CNC1=O)C2 (single isomer, unassigned) [DP, 10-benzyl-2,8,10-triazadispiro[3.1.3^6.2^4]undecane-1,7-dione]
NMDAR2A: % maximal [3H]MK-801 binding relative to 1 mM glycine [3]: + (<100%=+) | EC50 [7]: < 1 nM | EC50 [8]: < 1 nM | NMDAR2B: % maximal [3H]MK-801 binding relative to 1 mM glycine [4]: ++ (>100%=++)

O=C1NCC12CN(Cc1ccccc1)C1(CNC1=O)C2 (single isomer, unassigned) [DQ, 10-benzyl-2,8,10-triazadispiro[3.1.3^6.2^4]undecane-1,7-dione]
NMDAR2A: % maximal [3H]MK-801 binding relative to 1 mM glycine [3]: − (−=0) | EC50 [7]: > 100 nM | EC50 [8]: < 1 nM | NMDAR2B: % maximal [3H]MK-801 binding relative to 1 mM glycine [4]: + (<100%=+)

O=C1NCC12CN(Cc1ccccc1)C1(CNC1=O)C2 (single isomer, unassigned) [DR, 10-benzyl-2,8,10-triazadispiro[3.1.3^6.2^4]undecane-1,7-dione]
NMDAR2A: % maximal [3H]MK-801 binding relative to 1 mM glycine [3]: + (<100%=+) | EC50 [7]: < 1 nM | EC50 [8]: < 1 nM | NMDAR2B: % maximal [3H]MK-801 binding relative to 1 mM glycine [4]: + (<100%=+)

CC(=O)N1C(C(=O)N[C@H](C(N)=O)[C@@H](C)O)CCC12CNC2=O (stereo partly drawn) [AO, 5-acetyl-N-((2S,3R)-1-amino-3-hydroxy-1-oxobutan-2-yl)-1-oxo-2,5-diazaspiro[3.4]octane-6-carboxamide]
Plasma (Human): percent of compound remaining after 60 minutes (Plasma stability (Human)): 100% | AUC(0-t) (IV pharmacokinetics; [10]): 4430 ng·h/mL | clearance (IV pharmacokinetics; [10]): 7.59 mL/min/kg | half-life (IV pharmacokinetics; [10]): 2.17 h | C0 (IV pharmacokinetics; [11]): 11900 ng/mL | Vd (IV pharmacokinetics; [10]): 0.22 L/kg | Plasma (Rat): percent of compound remaining after 60 minutes (Plasma stability (Rat)): 93% | Microsomal (Rat): percent of compound remaining after 60 minutes [1]: 100% | Microsomal (Human): percent of compound remaining after 60 minutes [2]: 100% | EC50 [7]: > 100 nM | Emax [7]: 0% | EC50 [8]: < 1 nM | Emax [8]: < 100% | Max Effect (mean number of 50 kHz USVs per 15 seconds) [5]: ** (**: 11-16.9) | CSF Cmax [6]: 17.89 ng/mL | Brain Cmax [6]: 0 ng/mL | AUC(0-t) [6, 12]: 1320 ng·h/mL | bioavailability [6, 12]: 6% | Tmax [6, 13]: 2.67 h | Cmax [6, 14]: 247 ng/mL
